The text below walks through data of patent publication US8044198B2, “Sirtuin modulating compounds” (Sirtris Pharmaceuticals, Inc., priority 2005, dated 2011).

This assay addresses T1, SIRT1 (Homo sapiens, UniProt Q96EB6).
T1 sequence (Q96EB6 1-747): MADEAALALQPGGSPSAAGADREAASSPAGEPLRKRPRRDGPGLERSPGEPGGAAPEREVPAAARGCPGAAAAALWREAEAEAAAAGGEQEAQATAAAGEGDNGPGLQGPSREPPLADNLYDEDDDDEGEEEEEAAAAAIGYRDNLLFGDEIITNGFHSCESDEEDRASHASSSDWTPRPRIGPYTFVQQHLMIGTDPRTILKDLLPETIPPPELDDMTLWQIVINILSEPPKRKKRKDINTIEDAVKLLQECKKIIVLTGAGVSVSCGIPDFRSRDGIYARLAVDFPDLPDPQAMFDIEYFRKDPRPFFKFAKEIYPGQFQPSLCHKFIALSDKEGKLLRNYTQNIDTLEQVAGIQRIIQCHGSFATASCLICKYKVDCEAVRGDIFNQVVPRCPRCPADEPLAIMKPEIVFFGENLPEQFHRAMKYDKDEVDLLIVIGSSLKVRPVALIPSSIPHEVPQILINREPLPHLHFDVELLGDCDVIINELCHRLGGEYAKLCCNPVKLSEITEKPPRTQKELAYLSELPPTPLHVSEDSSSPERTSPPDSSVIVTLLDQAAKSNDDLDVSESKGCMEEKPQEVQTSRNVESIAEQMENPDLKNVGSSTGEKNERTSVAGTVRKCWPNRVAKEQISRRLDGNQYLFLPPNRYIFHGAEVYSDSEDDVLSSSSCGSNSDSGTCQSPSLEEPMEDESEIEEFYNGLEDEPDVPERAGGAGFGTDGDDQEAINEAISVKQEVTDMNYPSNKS
In words: SIRT1 mass spectrometry (MS) based deacetylation assay. For FOLD ACT. MS: test concentration or dose not given here. The class given is biochemical. The conditions noted are these: for EC50: mass spectrometry assay, read-out: ED50 MS ASSAY.

[1] abbreviates: fold activation of SIRT1, mass spectrometry assay.
[2] abbreviates: Sirt1 activators, fold activation as determined by MS.

Like-named read-outs stand apart in the source and are kept apart here.

For `CN(C)c1cccc2c(S(=O)(=O)Nc3cccc(-c4nc5ccncc5s4)c3)cccc12` [Compound 398], the EC50 (SIRT1 activation) lay within 5 to 50 µM. The “FOLD ACT. MS” value under setting [1] is “B (B (Fold Activation <250%))”.
The like results for `O=c1[nH]c2ccc(S(=O)(=O)Nc3cccc(-c4nc5ccncc5s4)c3)cc2o1` [Compound 399] were, in that order, 5 to 50 µM and “B (B (Fold Activation <250%))”.
In the same order, the values of `COc1ccc(C(=O)Nc2cccc(-c3nc4cnccc4s3)c2)c(OC)c1OC` [Compound 401] are 5 to 50 µM and “B (B (Fold Activation <250%))”.
In the same order, the values of `CN(C)c1cccc(C(=O)Nc2cccc(-c3nc4cnccc4s3)c2)c1` [Compound 402] are less than 5 µM and “B (B (Fold Activation <250%))”.
Turning to `CN(C)c1ccc(C(=O)Nc2cccc(-c3nc4cnccc4s3)c2)cc1` [Compound 403], the EC50 (SIRT1 activation) was less than 5 µM. In addition, the “FOLD ACT. MS” value under setting [1] is “B (B (Fold Activation <250%))”.
The like results for `COc1cc(OC)cc(C(=O)Nc2ccccc2-c2nc3cnccc3o2)c1` [Compound 404] were, in that order, less than 5 µM and “B (B (Fold Activation <250%))”.
Consider `COc1cc(C(=O)Nc2ccccc2-c2nc3cnccc3o2)cc(OC)c1OC` [Compound 405], for which, where the note is “SIRT1 activation”, the EC50 was less than 5 µM. Moreover, under setting [1], the “FOLD ACT. MS” value is on record as “B (B (Fold Activation <250%))”.
In the case of `CN(C)c1cccc(C(=O)Nc2ccccc2-c2nc3cnccc3o2)c1` [Compound 406], the EC50 (SIRT1 activation) is less than 5 µM. Further, under setting [1], the “FOLD ACT. MS” value is listed as “B (B (Fold Activation <250%))”.
In the same order, the values of `CN(C)c1ccc(C(=O)Nc2ccccc2-c2nc3cnccc3o2)cc1` [Compound 407] are less than 5 µM and “B (B (Fold Activation <250%))”.
The like results for `CN(C)c1cccc(C(=O)Nc2ccc(-c3nc4ccncc4o3)cc2)c1` [Compound 408] were, in that order, 51 to 100 µM and “B (B (Fold Activation <250%))”.
The like results for `COc1ccc(C(=O)Nc2ccccc2-c2nc3cnccc3s2)c(OC)c1OC` [Compound 411] were, in that order, 5 to 50 µM and “B (B (Fold Activation <250%))”.
For `COc1ccc(C(=O)Nc2ccccc2-c2cnc3ccccc3c2)c(OC)c1` [Compound 413], the EC50 (SIRT1 activation) fell in the range of 51 to 100 µM. Moreover, the “FOLD ACT. MS” value under setting [1] is listed as “B (B (Fold Activation <250%))”.
The like results for `COc1ccc(C(=O)Nc2ccccc2-c2cnc3ccccc3c2)cc1OC` [Compound 414] were, in that order, 5 to 50 µM and “B (B (Fold Activation <250%))”.
The like results for `COc1cc(C(=O)Nc2ccccc2-c2cnc3ccccc3c2)cc(OC)c1OC` [Compound 415] were, in that order, 51 to 100 µM and “B (B (Fold Activation <250%))”.
The like results for `COc1ccc(C(=O)Nc2ccccc2-c2nc3cnccc3o2)c(OC)c1OC` [Compound 421] were, in that order, 5 to 50 µM and “B (B (Fold Activation <250%))”.
Regarding `COc1ccc(C(=O)Nc2ccc(-c3nc4cnccc4o3)s2)c(OC)c1` [Compound 422], the EC50 (SIRT1 activation) was 5 to 50 µM. In addition, the “FOLD ACT. MS” value under setting [1] is “B (B (Fold Activation <250%))”.
For the compound `COc1ccc(C(=O)Nc2ccc(-c3nc4cnccc4o3)s2)cc1OC` [Compound 423], for the setting “SIRT1 activation”, the EC50 was less than 5 µM. Also, the “FOLD ACT. MS” value under setting [1] is given as “B (B (Fold Activation <250%))”.
In the same order, the values of `COc1cc(C(=O)Nc2ccc(-c3nc4cnccc4o3)s2)cc(OC)c1OC` [Compound 426] are less than 5 µM and “B (B (Fold Activation <250%))”.
The like results for `CN(C)c1cccc(C(=O)Nc2ccc(-c3nc4cnccc4o3)s2)c1` [Compound 427] were, in that order, less than 5 µM and “B (B (Fold Activation <250%))”.
The like results for `COc1ccc(C(=O)Nc2cccc(-c3nc4ccncc4o3)c2)c(OC)c1` [Compound 429] were, in that order, less than 5 µM and “B (B (Fold Activation <250%))”.
As to `COc1cc(C(=O)Nc2cccc(-c3nc4ccncc4o3)c2)cc(OC)c1OC` [Compound 430], the EC50 (SIRT1 activation) lay in the range of 5 to 50 µM. The “FOLD ACT. MS” value under setting [1] is “A (A (Fold activation >250%))”.
The like results for `CN(C)c1ccc(C(=O)Nc2cccc(-c3nc4ccncc4o3)c2)cc1` [Compound 431] were, in that order, 5 to 50 µM and “B (B (Fold Activation <250%))”.
In the case of `COc1cc(C(=O)Nc2ccccc2-c2nc3ccncc3s2)ccc1CN1CCCC1` [Compound 436], under “SIRT1 activation”, the EC50 is 5 to 50 µM. Moreover, the “FOLD ACT. MS” value under setting [1] was “A (A (Fold activation >250%))”.
In the case of `COc1ccc(C(=O)Nc2ccccc2-c2cn3cccnc3n2)c(OC)c1` [Compound 437], the EC50 (SIRT1 activation) was 5 to 50 µM. Besides, the “FOLD ACT. MS” value under setting [1] is “B (B (Fold Activation <250%))”.
On to `COc1ccc(C(=O)Nc2ccccc2-c2cn3cccnc3n2)cc1OC` [Compound 438], for which, where the note is “SIRT1 activation”, the EC50 is less than 5 µM. In addition, the “FOLD ACT. MS” value under setting [1] is reported as “A (A (Fold activation >250%))”.
Regarding `COc1cc(C(=O)Nc2ccccc2-c2cn3cccnc3n2)cc(OC)c1OC` [Compound 439], the EC50 (SIRT1 activation) is less than 5 µM. For the same compound, the “FOLD ACT. MS” value under setting [1] is recorded as “B (B (Fold Activation <250%))”.
In the same order, the values of `O=C(Nc1ccccc1-c1cn2c(CN3CCNCC3)csc2n1)c1ccc2ccccc2n1` [Compound 440] are less than 5 µM and “A (A (Fold activation >250%))”.
In the same order, the values of `O=C(Nc1ccccc1-c1cn2c(CN3CCNCC3)csc2n1)c1cnc2ccccc2n1` [Compound 441] are less than 5 µM and “A (A (Fold activation >250%))”.
The like results for `Cc1c(C(=O)Nc2ccccc2-c2cn3c(CN4CCNCC4)csc3n2)oc2ccccc12` [Compound 442] were, in that order, less than 5 µM and “A (A (Fold activation >250%))”.
Consider `Cc1cc(C(=O)Nc2ccccc2-c2cn3c(CN4CCNCC4)csc3n2)c(C)o1` [Compound 443], for which the EC50 (SIRT1 activation) was 5 to 50 µM. Also, the “FOLD ACT. MS” value under setting [1] is listed as “A (A (Fold activation >250%))”.
The like results for `CSc1ccc(C(=O)Nc2ccccc2-c2cn3c(CN4CCNCC4)csc3n2)cc1` [Compound 444] were, in that order, 5 to 50 µM and “A (A (Fold activation >250%))”.
For `O=C(Cc1ccccc1)Nc1ccccc1-c1cn2c(CN3CCNCC3)csc2n1` [Compound 445], the EC50 (SIRT1 activation) lay in the range of 5 to 50 µM. For the same compound, the “FOLD ACT. MS” value under setting [1] is recorded as “B (B (Fold Activation <250%))”.
The like results for `O=C(Nc1ccccc1-c1cn2c(CN3CCNCC3)csc2n1)c1cccs1` [Compound 446] were, in that order, 5 to 50 µM and “B (B (Fold Activation <250%))”.
In the same order, the values of `COc1cc(OC)cc(C(=O)Nc2cccc(-c3nc4ccncc4o3)c2)c1` [Compound 451] are 5 to 50 µM and “B (B (Fold Activation <250%))”.
The like results for `COc1ccc(C(=O)Nc2cccc(-c3nc4ccncc4o3)c2)c(OC)c1OC` [Compound 452] were, in that order, 5 to 50 µM and “B (B (Fold Activation <250%))”.
Consider `CN(C)c1cccc(C(=O)Nc2cccc(-c3nc4ccncc4o3)c2)c1` [Compound 453], for which, where the note is “SIRT1 activation”, the EC50 lay in the range of 5 to 50 µM. The “FOLD ACT. MS” value under setting [1] is reported as “B (B (Fold Activation <250%))”.
In the same order, the values of `COc1ccc(C(=O)Nc2cccc(-c3nc4ccncc4o3)c2)cc1OC` [Compound 454] are 5 to 50 µM and “B (B (Fold Activation <250%))”.
The like results for `COc1ccc(C(=O)Nc2ccccc2-c2nc3ccncc3o2)c(OC)c1` [Compound 455] were, in that order, less than 5 µM and “B (B (Fold Activation <250%))”.
The like results for `COc1cc(OC)cc(C(=O)Nc2ccccc2-c2nc3ccncc3o2)c1` [Compound 456] were, in that order, less than 5 µM and “B (B (Fold Activation <250%))”.
For `COc1cc(C(=O)Nc2ccccc2-c2nc3ccncc3o2)cc(OC)c1OC` [Compound 457], the EC50 (SIRT1 activation) fell in the range of 5 to 50 µM. Also, under setting [1], the “FOLD ACT. MS” value was “B (B (Fold Activation <250%))”.
In the same order, the values of `CN(C)c1cccc(C(=O)Nc2ccccc2-c2nc3ccncc3o2)c1` [Compound 458] are less than 5 µM and “B (B (Fold Activation <250%))”.
As to `CN(C)c1ccc(C(=O)Nc2ccccc2-c2nc3ccncc3o2)cc1` [Compound 459], under setting [2], the “FOLD ACT. MS” value is on record as “B (B (Fold Activation <250%))”. For the same compound, the EC50 (Sirt1 activators) was less than 5 µM.
As for `O=C(CCc1ccccc1)Nc1ccccc1-c1nc2ccncc2s1` [Compound 460], the EC50 (Sirt1 activators) is 5 to 50 µM.
Same read-out and setting: for `Cc1cc(C(=O)Nc2ccccc2-c2nc3ccncc3s2)n(C(C)(C)C)n1` [Compound 462] the value was less than 5 µM; for `CC(Oc1ccccc1)C(=O)Nc1ccccc1-c1nc2ccncc2s1` (stereo not drawn) [Compound 463], 5 to 50 µM.
Take `Cc1cc(C)cc(C(=O)Nc2cc(-c3nc4ncccc4o3)ccn2)c1` [Compound 468]: under setting [2], the “FOLD ACT. MS” value is listed as “B (B (Fold Activation <250%))”. In addition, for the setting “Sirt1 activators”, the EC50 lay in the range of 5 to 50 µM.
For `COC(=O)c1cccc(NC(=S)Nc2cccc(-c3nc4ccncc4s3)c2)c1` [Compound 473], the EC50 (Sirt1 activators) is less than 5 µM.
